Results: patent publication US10493077B2, “Fused imidazo-piperidine JAK inhibitor compound” (THERAVANCE BIOPHARMA R&D IP, LLC, priority 2017, dated 2019)

Tests used:
[1] = system: IL-2 stimulated pSTAT5 in CD4+ T cells; experiment: Cellular JAK potency assay: inhibition of IL-2 stimulated pSTAT5 in CD4+ T cells; format: cell-based; conditions: 0.5 h; CD4+ T cells in human PBMCs, 30 min stimulation; read-out: pIC50, inhibition of IL-2 stimulated pSTAT5 (converted)
Procedure: The potency of the test compound for inhibition of interleukin-2 (IL-2)/anti-CD3 stimulated STAT5 phosphorylation was measured in CD4-positive (CD4+) T cells in human peripheral blood mononuclear cells (PBMCs) isolated from human whole blood (Stanford Blood Center) using flow cytometry. Because IL-2 signals through JAK, this assay provides a measure of JAK cellular potency.
CD4+ T cells were identified using a […] (PE) conjugated anti-CD4 antibody (Clone RPA-T4, BD Biosciences), while an Alexa Fluor 647 conjugated anti-pSTAT5 antibody (pY694, Clone 47, BD Biosciences) was used to detect STAT5 phosphorylation. […]
(2) After cytokine stimulation, cells were fixed with pre warmed fix solution (200 μL; BD Biosciences) for 10 min at 37° C., 5% CO2, washed twice with DPBS buffer (1 mL, Life Technologies), and resuspended in ice cold Perm Buffer III (1000 μL, BD Biosciences) for 30 min at 4° C. […] After incubation, cells were washed twice in FACS buffer before being analyzed using a LSRII flow cytometer (BD Biosciences). To determine the inhibitory potency of the test compound in response to IL-2/anti-CD3, the median fluorescent intensity (MFI) of pSTAT5 was measured in CD4+ T cells. IC50 values were determined from analysis of the inhibition curves of MFI vs compound concentration. Data are expressed as pIC50 (negative decadic logarithm IC50) values.

[2] = system: IFNγ stimulated STAT1 phosphorylation in CD14+ monocytes; experiment: Cellular JAK potency assay: inhibition of IFNγ-induced pSTAT1 in CD14+ monocytes; format: cell-based; conditions: Homo sapiens, Monocyte, read-out: pIC50, inhibition of IFNγ-induced pSTAT1 (converted)
Procedure: The potency of the test compound for inhibition of interferon gamma (IFNγ) stimulated STAT1 phosphorylation was measured in CD14-positive (CD14+) monocytes derived from human whole blood (Stanford Blood Center) using flow cytometry. Because IFNγ signals through JAK, this assay provides a measure of JAK cellular potency.
Monocytes were identified using a fluorescein isothiocyanate (FITC) conjugated anti-CD14 antibody (Clone RM052, Beckman Coulter), and an Alexa Fluor 647 conjugated anti-pSTAT1 antibody (pY701, Clone 4a, BD Biosciences) was used to detect STAT1 phosphorylation.
Human peripheral blood mononuclear cells (PBMC) were isolated from human whole blood of healthy donors using a ficoll gradient. […] Cells were washed twice with FACS buffer, and then resuspended in 1:10 anti-pSTAT1 Alexa Fluor 647:FACS buffer (100 μL) for 30 min at RT in the dark, washed twice in FACS buffer, and analyzed using a LSRII flow cytometer (BD Biosciences).
To determine the inhibitory potency of the test compound, the median fluorescent intensity (MFI) of pSTAT1 was measured in CD14+ monocytes. IC50 values were determined from analysis of the inhibition curves of MFI vs compound concentration. Data are expressed as pIC50 (negative decadic logarithm IC50) values.

CSF1R = target: T1, CSF1R (Homo sapiens, UniProt P07333); experiment: Kinome screen, CSF1R; format: binding; conditions: screened at 1 μM
T1 construct: made in house; host or cells: T7 phage in E. coli (BL21-derived) or HEK-293
T1 sequence (P07333 20-972): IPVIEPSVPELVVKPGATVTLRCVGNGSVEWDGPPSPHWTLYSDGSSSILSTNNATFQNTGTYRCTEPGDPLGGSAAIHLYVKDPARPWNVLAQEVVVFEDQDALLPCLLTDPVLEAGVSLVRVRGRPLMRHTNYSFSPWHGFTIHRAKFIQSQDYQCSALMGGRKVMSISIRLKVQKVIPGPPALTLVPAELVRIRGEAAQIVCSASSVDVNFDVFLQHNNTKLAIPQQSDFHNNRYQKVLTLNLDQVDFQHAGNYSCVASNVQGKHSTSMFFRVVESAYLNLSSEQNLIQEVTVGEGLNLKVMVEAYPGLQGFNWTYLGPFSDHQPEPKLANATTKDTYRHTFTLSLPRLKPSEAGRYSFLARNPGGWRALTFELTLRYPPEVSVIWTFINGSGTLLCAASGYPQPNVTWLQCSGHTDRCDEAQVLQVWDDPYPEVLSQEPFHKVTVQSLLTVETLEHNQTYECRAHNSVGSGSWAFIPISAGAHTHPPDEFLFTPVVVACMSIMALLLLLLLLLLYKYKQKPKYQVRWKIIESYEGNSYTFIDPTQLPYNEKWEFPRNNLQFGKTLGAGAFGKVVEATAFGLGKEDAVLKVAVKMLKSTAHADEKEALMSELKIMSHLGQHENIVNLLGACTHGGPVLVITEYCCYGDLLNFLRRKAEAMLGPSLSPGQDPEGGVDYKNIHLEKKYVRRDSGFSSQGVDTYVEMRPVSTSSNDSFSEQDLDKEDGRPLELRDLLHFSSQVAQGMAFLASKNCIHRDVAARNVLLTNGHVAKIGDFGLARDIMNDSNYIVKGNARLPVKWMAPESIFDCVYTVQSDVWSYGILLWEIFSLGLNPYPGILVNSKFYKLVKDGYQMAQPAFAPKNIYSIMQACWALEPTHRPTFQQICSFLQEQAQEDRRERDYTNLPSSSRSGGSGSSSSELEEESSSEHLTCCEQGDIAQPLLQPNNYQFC
Procedure: Kinase-tagged T7 phage strains were grown in parallel in 24-well blocks in an E. coli host derived from the BL21 strain. E. coli were grown to log-phase and infected with T7 phage from a frozen stock (multiplicity of infection=0.4) and incubated with shaking at 32° C. until lysis (90-150 minutes). The lysates were centrifuged (6,000×g) and filtered (0.2 μm) to remove cell debris. The remaining kinases were produced in HEK-293 cells and subsequently tagged with DNA for qPCR detection.
Streptavidin-coated magnetic beads were treated with biotinylated small molecule ligands for 30 minutes at room temperature to generate affinity resins for kinase assays. The liganded beads were blocked with excess biotin and washed with blocking buffer (SeaBlock (Pierce), 1% BSA, 0.05% Tween 20, 1 mM DTT) to remove unbound ligand and to reduce non-specific phage binding. […] Test compounds were prepared as 40× stocks in 100% DMSO and directly diluted into the assay. All reactions were performed in polypropylene 384-well plates in a final volume of 0.04 ml. […] The beads were then re-suspended in elution buffer (1×PBS, 0.05% Tween 20, 0.5 μM non-biotinylated affinity ligand) and incubated at room temperature with shaking for 30 minutes. The kinase concentration in the eluates was measured by qPCR.

Compound: CCc1cc(O)c(F)cc1-c1cc(F)c2c(-c3nc4c([nH]3)CCN(C(=O)CN3CCOCC3)C4)n[nH]c2c1 [Compound 1, 1-(2-(6-(2-ethyl-5-fluoro-4-hydroxyphenyl)-4-fluoro-1H-indazol-3-yl)-1,4,6,7-tetrahydro-5H-imidazo[4,5-c]pyridin-5-yl)-2-morpholinoethan-1-one]
- IC50 [1]: ~20 nM
- IC50 [2]: ~79.4 nM
- inhibition at 1 µM (CSF1R): 98%
